Data: publication PMC2096529 (Purinergic Signalling, 2005)

Columns and labels:
Assay in all cases: Fluo-3 calcium mobilization, FLIPR, […]1 cells
Format in all cases: cell-based
human P2Y2 receptor = human P2Y2 receptor (Homo sapiens, UniProt P41231)
human P2Y6 receptor = human P2Y6 receptor (Homo sapiens, UniProt Q15077)
human P2Y4 receptor = human P2Y4 receptor (Homo sapiens, UniProt P51582)
human P2Y1 receptor = human P2Y1 receptor (Homo sapiens, UniProt P47900)
Sequence of human P2Y1 receptor (P47900 whole entry): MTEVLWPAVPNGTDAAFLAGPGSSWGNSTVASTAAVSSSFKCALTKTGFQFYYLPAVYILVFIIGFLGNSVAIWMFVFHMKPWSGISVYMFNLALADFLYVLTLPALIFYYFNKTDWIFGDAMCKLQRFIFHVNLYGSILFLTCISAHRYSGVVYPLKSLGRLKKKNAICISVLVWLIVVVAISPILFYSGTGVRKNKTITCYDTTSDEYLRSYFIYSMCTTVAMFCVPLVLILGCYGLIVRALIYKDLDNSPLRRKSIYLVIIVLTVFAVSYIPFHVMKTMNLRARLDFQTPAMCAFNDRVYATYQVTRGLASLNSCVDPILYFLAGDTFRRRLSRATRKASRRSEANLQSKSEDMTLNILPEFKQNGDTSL

Sequence of human P2Y2 receptor (P41231 whole entry): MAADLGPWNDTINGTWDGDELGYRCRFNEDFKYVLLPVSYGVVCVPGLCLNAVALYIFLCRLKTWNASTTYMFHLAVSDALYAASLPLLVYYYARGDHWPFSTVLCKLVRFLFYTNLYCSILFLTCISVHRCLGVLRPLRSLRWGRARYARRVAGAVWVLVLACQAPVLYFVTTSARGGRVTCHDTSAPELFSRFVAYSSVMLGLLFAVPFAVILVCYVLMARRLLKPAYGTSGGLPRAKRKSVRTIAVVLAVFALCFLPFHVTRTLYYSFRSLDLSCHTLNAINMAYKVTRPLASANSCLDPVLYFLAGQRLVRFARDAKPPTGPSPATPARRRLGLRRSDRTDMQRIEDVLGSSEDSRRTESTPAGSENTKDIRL
Sequence of human P2Y4 receptor (P51582 whole entry): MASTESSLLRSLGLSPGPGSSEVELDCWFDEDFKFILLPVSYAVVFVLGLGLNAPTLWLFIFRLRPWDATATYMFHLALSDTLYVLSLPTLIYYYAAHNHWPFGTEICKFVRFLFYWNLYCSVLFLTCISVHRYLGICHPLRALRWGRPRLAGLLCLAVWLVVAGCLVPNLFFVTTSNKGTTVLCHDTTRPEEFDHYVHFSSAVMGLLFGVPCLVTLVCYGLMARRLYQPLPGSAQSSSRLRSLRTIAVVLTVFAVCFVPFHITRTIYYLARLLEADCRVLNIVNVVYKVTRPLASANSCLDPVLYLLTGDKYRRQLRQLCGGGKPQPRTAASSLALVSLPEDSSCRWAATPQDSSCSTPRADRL
Sequence of human P2Y6 receptor (Q15077 whole entry): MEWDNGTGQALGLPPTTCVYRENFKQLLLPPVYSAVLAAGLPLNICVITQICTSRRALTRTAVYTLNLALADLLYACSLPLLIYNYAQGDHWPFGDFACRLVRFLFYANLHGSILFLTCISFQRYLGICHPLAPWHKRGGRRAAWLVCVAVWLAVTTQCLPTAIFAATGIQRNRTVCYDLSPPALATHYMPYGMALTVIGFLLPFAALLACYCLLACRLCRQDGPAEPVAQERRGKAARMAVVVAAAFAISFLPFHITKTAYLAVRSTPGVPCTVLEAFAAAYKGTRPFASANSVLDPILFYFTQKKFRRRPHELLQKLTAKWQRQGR

| SMILES | EC50 (human P2Y2 receptor) [nM] | EC50 (human P2Y6 receptor) [nM] | EC50 (human P2Y4 receptor) [nM] | EC50 (human P2Y1 receptor) [nM] |
| --- | --- | --- | --- | --- |
| Nc1ncnc2c1ncn2[C@@H]1O[C@H](COP(=O)(O)OP(=O)(O)OP(=O)(O)O)[C@@H](O)[C@H]1O [ATP] | 15 |  |  |  |
| O=c1ccn([C@@H]2O[C@H](COP(=O)(O)OP(=O)(O)OC[C@H]3O[C@@H](n4ccc(=O)[nH]c4=O)[C@H](O)[C@@H]3O)[C@@H](O)[C@H]2O)c(=O)[nH]1 [compound 4, UP2U] |  | 33000 |  |  |
| O=c1ccn([C@@H]2O[C@H](COP(=O)(O)OP(=O)(O)OP(=O)(O)O)[C@@H](O)[C@H]2O)c(=O)[nH]1 [compound 7, UTP] | 15 | 1470 | 70 |  |
| Nc1ncnc2c1ncn2[C@@H]1O[C@H](CO[P@](=O)(O)O[P@](=O)(O)OC[C@H]2O[C@@H](n3cnc4c(N)ncnc43)[C@H](O)[C@@H]2O)[C@@H](O)[C@H]1O [compound 13, AP2A] |  |  |  | 4250 |
| Nc1ncnc2c1ncn2[C@@H]1O[C@H](COP(=O)(O)OP(=O)(O)OC[C@H]2O[C@@H](n3ccc(=O)[nH]c3=O)[C@H](O)[C@@H]2O)[C@@H](O)[C@H]1O [compound 14, AP2U] | 23400 |  |  | 2850 |
| Nc1ccn([C@@H]2O[C@H](COP(=O)(O)OP(=O)(O)OC[C@H]3O[C@@H](n4cnc5c(N)ncnc54)[C@H](O)[C@@H]3O)[C@@H](O)[C@H]2O)c(=O)n1 [compound 15, AP2C] | 6900 | 18800 |  | 2110 |
| Nc1nc2c(ncn2[C@@H]2O[C@H](COP(=O)(O)OP(=O)(O)OC[C@H]3O[C@@H](n4cnc5c(N)ncnc54)[C@H](O)[C@@H]3O)[C@@H](O)[C@H]2O)c(=O)[nH]1 [compound 16, AP2G] | 1300 | 9140 | 1500 | 26500 |
| Nc1nc2c(ncn2[C@H]2C[C@H](O)[C@@H](COP(=O)(O)OP(=O)(O)OC[C@H]3O[C@@H](n4cnc5c(N)ncnc54)[C@H](O)[C@@H]3O)O2)c(=O)[nH]1 [compound 17, AP2dG] |  | > 10000 |  | 24600 |
| Nc1nc2c(ncn2[C@@H]2O[C@H](COP(=O)(O)OP(=O)(O)OC[C@H]3O[C@@H](n4ccc(=O)[nH]c4=O)[C@H](O)[C@@H]3O)[C@@H](O)[C@H]2O)c(=O)[nH]1 [compound 18, UP2G] | 2100 | 7540 | 4640 |  |
| Nc1nc2c(ncn2[C@H]2C[C@H](O)[C@@H](COP(=O)(O)OP(=O)(O)OC[C@H]3O[C@@H](n4ccc(=O)[nH]c4=O)[C@H](O)[C@@H]3O)O2)c(=O)[nH]1 [compound 20, UP2dG] | 29000 | > 10000 |  | > 10000 |
| O=c1[nH]cnc2c1ncn2[C@@H]1O[C@H](COP(=O)(O)OP(=O)(O)OC[C@H]2O[C@@H](n3cnc4c(=O)[nH]cnc43)[C@H](O)[C@@H]2O)[C@@H](O)[C@H]1O [compound 22, IP2I] | 4800 | > 10000 | 5060 |  |
| O=c1[nH]c(=S)ccn1[C@@H]1O[C@H](COP(=O)(O)OP(=O)(O)OC[C@H]2O[C@@H](n3ccc(=S)[nH]c3=O)[C@H](O)[C@@H]2O)[C@@H](O)[C@H]1O [compound 23, 4-thioUP24-thioU] | 29100 | 25200 | 33900 | > 10000 |
| Nc1ncnc2c1ncn2[C@@H]1O[C@H](COP(=O)(O)OP(=O)(O)OP(=O)(O)OC[C@H]2O[C@@H](n3cnc4c(N)ncnc43)[C@H](O)[C@@H]2O)[C@@H](O)[C@H]1O [compound 25, AP3A] | 28500 |  |  | 11 |
| Nc1ncnc2c1ncn2[C@@H]1O[C@H](COP(=O)(O)OP(=O)(O)OP(=O)(O)OC[C@H]2O[C@@H](n3ccc(=O)[nH]c3=O)[C@H](O)[C@@H]2O)[C@@H](O)[C@H]1O [compound 26, AP3U] | 2000 | 170 |  | 39 |
| Nc1ccn([C@@H]2O[C@H](COP(=O)(O)OP(=O)(O)OP(=O)(O)OC[C@H]3O[C@@H](n4cnc5c(N)ncnc54)[C@H](O)[C@@H]3O)[C@@H](O)[C@H]2O)c(=O)n1 [compound 27, AP3C] | 6000 | > 10000 |  | 85 |
| Nc1ccn([C@@H]2O[C@H](COP(=O)(O)OP(=O)(O)OP(=O)(O)OC[C@H]3O[C@@H](n4ccc(=O)[nH]c4=O)[C@H](O)[C@@H]3O)[C@@H](O)[C@H]2O)c(=O)n1 [compound 31, UP3C] | 2000 | 520 | 16700 |  |
| Nc1nc2c(ncn2[C@@H]2O[C@H](COP(=O)(O)OP(=O)(O)OP(=O)(O)OC[C@H]3O[C@@H](n4ccc(=O)[nH]c4=O)[C@H](O)[C@@H]3O)[C@@H](O)[C@H]2O)c(=O)[nH]1 [compound 32, UP3G] |  | 380 |  |  |
| O=c1ccn([C@@H]2O[C@H](COP(=O)(O)OP(=O)(O)OP(=O)(O)OC[C@H]3O[C@@H](n4cnc5c(=O)[nH]cnc54)[C@H](O)[C@@H]3O)[C@@H](O)[C@H]2O)c(=O)[nH]1 [compound 33, UP3I] | 4500 | 1310 |  |  |

| SMILES | EC50 (human P2Y2 receptor) [nM] | EC50 (human P2Y6 receptor) [nM] | EC50 (human P2Y4 receptor) [nM] | EC50 (human P2Y1 receptor) [nM] |
| --- | --- | --- | --- | --- |
| Nc1nc2c(ncn2[C@H]2C[C@H](O)[C@@H](COP(=O)(O)OP(=O)(O)OP(=O)(O)OC[C@H]3O[C@@H](n4ccc(=O)[nH]c4=O)[C@H](O)[C@@H]3O)O2)c(=O)[nH]1 [compound 34, UP3dG] | 470 | 280 | 1980 |  |
| Nc1ccn([C@@H]2O[C@H](COP(=O)(O)OP(=O)(O)OP(=O)(O)OC[C@H]3O[C@@H](n4cnc5c(=O)[nH]cnc54)[C@H](O)[C@@H]3O)[C@@H](O)[C@H]2O)c(=O)n1 [compound 35, CP3I] | > 10000 |  |  | > 10000 |
| Nc1nc2c(ncn2[C@@H]2O[C@H](COP(=O)(O)OP(=O)(O)OP(=O)(O)OC[C@H]3O[C@@H](n4cnc5c(=O)[nH]cnc54)[C@H](O)[C@@H]3O)[C@@H](O)[C@H]2O)c(=O)[nH]1 [compound 37, IP3G] | > 10000 | > 10000 | 6410 |  |
| Nc1ncnc2c1ncn2[C@@H]1O[C@H](COP(=O)(O)OP(=O)(O)OP(=O)(O)OP(=O)(O)OC[C@H]2O[C@@H](n3cnc4c(N)ncnc43)[C@H](O)[C@@H]2O)[C@@H](O)[C@H]1O [compound 39, AP4A] | 54 |  |  | 320 |
| Nc1ncnc2c1ncn2[C@@H]1O[C@H](COP(=O)(O)OP(=O)(O)OP(=O)(O)OP(=O)(O)OC[C@H]2O[C@@H](n3ccc(=O)[nH]c3=O)[C@H](O)[C@@H]2O)[C@@H](O)[C@H]1O [compound 40, AP4U] | 350 |  | 1450 | 4750 |
| Nc1ccn([C@@H]2O[C@H](COP(=O)(O)OP(=O)(O)OP(=O)(O)OP(=O)(O)OC[C@H]3O[C@@H](n4cnc5c(N)ncnc54)[C@H](O)[C@@H]3O)[C@@H](O)[C@H]2O)c(=O)n1 [compound 41, AP4C] | 150 |  |  | 750 |
| Nc1ncnc2c1ncn2[C@@H]1O[C@H](COP(=O)(O)OP(=O)(O)OP(=O)(O)OP(=O)(O)OC[C@H]2O[C@@H](n3cnc4c(=O)[nH]cnc43)[C@H](O)[C@@H]2O)[C@@H](O)[C@H]1O [compound 42, AP4I] | 170 |  |  | 550 |
| O=c1ccn([C@@H]2O[C@H](COP(=O)(O)OP(=O)(O)OP(=O)(O)OP(=O)(O)OC[C@H]3O[C@@H](n4ccc(=O)[nH]c4=O)[C@H](O)[C@@H]3O)[C@@H](O)[C@H]2O)c(=O)[nH]1 [compound 43, UP4U] |  | 24800 | 200 |  |
| Nc1ccn([C@@H]2O[C@H](COP(=O)(O)OP(=O)(O)OP(=O)(O)OP(=O)(O)OC[C@H]3O[C@@H](n4ccc(=O)[nH]c4=O)[C@H](O)[C@@H]3O)[C@@H](O)[C@H]2O)c(=O)n1 [compound 44, UP4C] | 460 | 12100 | 850 |  |
| O=c1ccn([C@@H]2O[C@H](COP(=O)(O)OP(=O)(O)OP(=O)(O)OP(=O)(O)OC[C@H]3O[C@@H](n4cnc5c(=O)[nH]cnc54)[C@H](O)[C@@H]3O)[C@@H](O)[C@H]2O)c(=O)[nH]1 [compound 45, UP4I] | 520 | > 10000 | 280 |  |
| Cc1cn([C@H]2C[C@H](O)[C@@H](COP(=O)(O)OP(=O)(O)OP(=O)(O)OP(=O)(O)OC[C@H]3O[C@@H](n4ccc(=O)[nH]c4=O)[C@H](O)[C@@H]3O)O2)c(=O)[nH]c1=O [compound 46, UP4T] | 180 |  | 350 |  |
| O=c1ccn([C@@H]2O[C@H](COP(=O)(O)OP(=O)(O)OP(=O)(O)OP(=O)(O)OC[C@H]3O[C@@H](n4ccc(=S)[nH]c4=O)[C@H](O)[C@@H]3O)[C@@H](O)[C@H]2O)c(=O)[nH]1 [compound 47, UP44-thioU] | 40 | 190000 | 170 |  |
| O=c1ccn([C@@H]2O[C@H](COP(=O)(O)OP(=O)(O)OP(=O)(O)OP(=O)(O)OC[C@H]3O[C@@H](n4cnc5c(=O)[nH]cnc54)C[C@@H]3O)[C@@H](O)[C@H]2O)c(=O)[nH]1 [compound 48, UP4dI] | 230 | > 10000 | 470 |  |
| Nc1nc2c(ncn2[C@H]2C[C@H](O)[C@@H](COP(=O)(O)OP(=O)(O)OP(=O)(O)OP(=O)(O)OC[C@H]3O[C@@H](n4ccc(=O)[nH]c4=O)[C@H](O)[C@@H]3O)O2)c(=O)[nH]1 [compound 49, UP4dG] | 60 | 1680 | 140 |  |
| Nc1ccn([C@H]2C[C@H](O)[C@@H](COP(=O)(O)OP(=O)(O)OP(=O)(O)OP(=O)(O)OC[C@H]3O[C@@H](n4ccc(=O)[nH]c4=O)[C@H](O)[C@@H]3O)O2)c(=O)n1 [compound 51, UP4dC] |  | 16000 | 1220 |  |
| Nc1ccn([C@@H]2O[C@H](COP(=O)(O)OP(=O)(O)OP(=O)(O)OP(=O)(O)OC[C@H]3O[C@@H](n4ccc(=S)[nH]c4=O)[C@H](O)[C@@H]3O)[C@@H](O)[C@H]2O)c(=O)n1 [compound 55, CP44-thioU] | 36 | 5220 | 110 |  |
| O=c1[nH]c(=S)ccn1[C@@H]1O[C@H](COP(=O)(O)OP(=O)(O)OP(=O)(O)OP(=O)(O)OC[C@H]2O[C@@H](n3ccc(=S)[nH]c3=O)[C@H](O)[C@@H]2O)[C@@H](O)[C@H]1O [compound 56, 4-thioUP44-thioU] | 82 | 6820 | 90 |  |
